How the values were obtained:
cMyc in HCT116 cells = test: cMyc cell based Acumen assay; conditions: Homo sapiens, HCT-116, 4 hours, read-out: Relative IC50 for cMyc
[1] = test system: ARID1A mutants cancer cell lines; test: Biomarker study: distribution of anti-proliferation effects; format: cell-based
Protocol: (§1) Cancer cell lines are profiled to evaluate the anti-proliferative activity of a test compound in-vitro. Mutation, copy number and gene expression information of ARID1A, KMT2C, KMT2D and/or RB1 genes across cancer cell lines is obtained from COSMIC database (cancer.sanger.ac.uk) and cBioportal (http://www.cbioportal.org/). Cells are cultured in growth medium and plated into a 96-well plate in 100 μL/well growth medium at 5000 cells/well then incubated at 37° C., 5% CO2 overnight. Cells are cultured using supplier recommended media and conditions well known in the art, for example with RPMI 1640 with or without HEPES & L-Glutamine (Thermo SH30255.01) and 1 mM Sodium Pyruvate, and 10% FBS(Gibco cat #10082). The 1000× intermediate dilution plate is prepared by making a 10 mM working solution of a test sample in DMSO and performing 1:3 dilutions in DMSO for 10 points. The 10× dosing plate is prepared by adding 2 μL from the 1000× intermediate dilution plate to 198 μL of OPTIMEM®+10% FBS and mixing well. The cell plate is then treated by adding 11 μL from the 10× dosing plate into the 100 μL/well cell plate for a 1× final concentration. Staurosporine is used as a maximum growth inhibition control at a final concentration of 5 μM. The cell plate is incubated for 7 days at 37° C., 5% CO2. Seven days after treatment, Cell Titer-Glo® (Promega cat #G7571) assay buffer and substrate are removed from −20° C. and allowed to equilibrate to RT. Assay buffer is added to the substrate and swirled gently to mix. The CELL TITER-GLO® reagent (100 μL/well) is added to the cell plate and incubated at RT for 15 minutes. After 15 minutes, luminescence is read using a plate reader. Data is analyzed in Excel and graphed in GraphPad Prism. Statistical analysis and p value is calculated using Mann-Whitney nonparameteric t tests using GraphPad Prism.
(§2) Anti-proliferative effects of a test compound are categorized as insensitive (IC50≥1 μM), cytostatic (IC50<1 μM and % inhibition <70%) or cytotoxic (IC50<1 μM and % inhibition ≥70%).

[2] = test system: KMT2C mutants cancer cell lines; test: as above; format: cell-based
Protocol: as §1, §2

[3] = test system: KMT2D mutants cancer cell lines; test: as above; format: cell-based
Protocol: as §1, §2

[4] = test system: Others (cancer cell lines); test: as above; format: cell-based
Protocol: as §1, §2

[5] = test system: RB1 mutants cancer cell lines; test: as above; format: cell-based
Protocol: as §1, §2

## Cc1cc(NC2CCN(C(=O)O[C@H]3CCN(C(=O)/C=C/CN(C)C)C3)CC2)n2ncc(C(C)C)c2n1 [Example 1, [(3S)-1-[(E)-4-(dimethylamino)but-2-enoyl]pyrrolidin-3-yl] 4-[(3-isopropyl-5-methyl-pyrazolo[1,5-a]pyrimidin-7-yl)amino]piperidine-1-carboxylate]
cMyc in HCT116 cells
  IC50: 82.8 nM
[1]
  Distribution (%) of anti-proliferation effects: Cytotoxic (IC50 <1 μM, % Inh. ≥70): 64%, n = 25
[2]
  Distribution (%) of anti-proliferation effects: Cytotoxic (IC50 <1 μM, % Inh. ≥70): 70%, n = 7
[3]
  Distribution (%) of anti-proliferation effects: Cytotoxic (IC50 <1 μM, % Inh. ≥70): 76%, n = 19
[4]
  Distribution (%) of anti-proliferation effects: Cytotoxic (IC50 <1 μM, % Inh. ≥70): 40%, n = 41
[5]
  Distribution (%) of anti-proliferation effects: Cytotoxic (IC50 <1 μM, % Inh. ≥70): 54%, n = 22
